Earlier results as cited in patent US20130281512A1, “AGENTS FOR TREATING DISORDERS INVOLVING MODULATION OF RYANODINE RECEPTORS” (LES LABORATOIRES SERVIER, priority 2012, published 2013).

Assays:
[1] = tested on: RyR2; settings: WT and RyR2-S2808D+/+ mice; cited from earlier work
[2] = target: T1, RyR1 (Mus musculus, UniProt E9PZQ0); settings: extreme exercise, mice; cited from earlier work
T1 construct: RyR1 from aged (24 months) mice is oxidized, cysteine-nitrosylated, and depleted of calstabin1; host or cells: mice (in vivo)
T1 sequence (E9PZQ0 whole entry): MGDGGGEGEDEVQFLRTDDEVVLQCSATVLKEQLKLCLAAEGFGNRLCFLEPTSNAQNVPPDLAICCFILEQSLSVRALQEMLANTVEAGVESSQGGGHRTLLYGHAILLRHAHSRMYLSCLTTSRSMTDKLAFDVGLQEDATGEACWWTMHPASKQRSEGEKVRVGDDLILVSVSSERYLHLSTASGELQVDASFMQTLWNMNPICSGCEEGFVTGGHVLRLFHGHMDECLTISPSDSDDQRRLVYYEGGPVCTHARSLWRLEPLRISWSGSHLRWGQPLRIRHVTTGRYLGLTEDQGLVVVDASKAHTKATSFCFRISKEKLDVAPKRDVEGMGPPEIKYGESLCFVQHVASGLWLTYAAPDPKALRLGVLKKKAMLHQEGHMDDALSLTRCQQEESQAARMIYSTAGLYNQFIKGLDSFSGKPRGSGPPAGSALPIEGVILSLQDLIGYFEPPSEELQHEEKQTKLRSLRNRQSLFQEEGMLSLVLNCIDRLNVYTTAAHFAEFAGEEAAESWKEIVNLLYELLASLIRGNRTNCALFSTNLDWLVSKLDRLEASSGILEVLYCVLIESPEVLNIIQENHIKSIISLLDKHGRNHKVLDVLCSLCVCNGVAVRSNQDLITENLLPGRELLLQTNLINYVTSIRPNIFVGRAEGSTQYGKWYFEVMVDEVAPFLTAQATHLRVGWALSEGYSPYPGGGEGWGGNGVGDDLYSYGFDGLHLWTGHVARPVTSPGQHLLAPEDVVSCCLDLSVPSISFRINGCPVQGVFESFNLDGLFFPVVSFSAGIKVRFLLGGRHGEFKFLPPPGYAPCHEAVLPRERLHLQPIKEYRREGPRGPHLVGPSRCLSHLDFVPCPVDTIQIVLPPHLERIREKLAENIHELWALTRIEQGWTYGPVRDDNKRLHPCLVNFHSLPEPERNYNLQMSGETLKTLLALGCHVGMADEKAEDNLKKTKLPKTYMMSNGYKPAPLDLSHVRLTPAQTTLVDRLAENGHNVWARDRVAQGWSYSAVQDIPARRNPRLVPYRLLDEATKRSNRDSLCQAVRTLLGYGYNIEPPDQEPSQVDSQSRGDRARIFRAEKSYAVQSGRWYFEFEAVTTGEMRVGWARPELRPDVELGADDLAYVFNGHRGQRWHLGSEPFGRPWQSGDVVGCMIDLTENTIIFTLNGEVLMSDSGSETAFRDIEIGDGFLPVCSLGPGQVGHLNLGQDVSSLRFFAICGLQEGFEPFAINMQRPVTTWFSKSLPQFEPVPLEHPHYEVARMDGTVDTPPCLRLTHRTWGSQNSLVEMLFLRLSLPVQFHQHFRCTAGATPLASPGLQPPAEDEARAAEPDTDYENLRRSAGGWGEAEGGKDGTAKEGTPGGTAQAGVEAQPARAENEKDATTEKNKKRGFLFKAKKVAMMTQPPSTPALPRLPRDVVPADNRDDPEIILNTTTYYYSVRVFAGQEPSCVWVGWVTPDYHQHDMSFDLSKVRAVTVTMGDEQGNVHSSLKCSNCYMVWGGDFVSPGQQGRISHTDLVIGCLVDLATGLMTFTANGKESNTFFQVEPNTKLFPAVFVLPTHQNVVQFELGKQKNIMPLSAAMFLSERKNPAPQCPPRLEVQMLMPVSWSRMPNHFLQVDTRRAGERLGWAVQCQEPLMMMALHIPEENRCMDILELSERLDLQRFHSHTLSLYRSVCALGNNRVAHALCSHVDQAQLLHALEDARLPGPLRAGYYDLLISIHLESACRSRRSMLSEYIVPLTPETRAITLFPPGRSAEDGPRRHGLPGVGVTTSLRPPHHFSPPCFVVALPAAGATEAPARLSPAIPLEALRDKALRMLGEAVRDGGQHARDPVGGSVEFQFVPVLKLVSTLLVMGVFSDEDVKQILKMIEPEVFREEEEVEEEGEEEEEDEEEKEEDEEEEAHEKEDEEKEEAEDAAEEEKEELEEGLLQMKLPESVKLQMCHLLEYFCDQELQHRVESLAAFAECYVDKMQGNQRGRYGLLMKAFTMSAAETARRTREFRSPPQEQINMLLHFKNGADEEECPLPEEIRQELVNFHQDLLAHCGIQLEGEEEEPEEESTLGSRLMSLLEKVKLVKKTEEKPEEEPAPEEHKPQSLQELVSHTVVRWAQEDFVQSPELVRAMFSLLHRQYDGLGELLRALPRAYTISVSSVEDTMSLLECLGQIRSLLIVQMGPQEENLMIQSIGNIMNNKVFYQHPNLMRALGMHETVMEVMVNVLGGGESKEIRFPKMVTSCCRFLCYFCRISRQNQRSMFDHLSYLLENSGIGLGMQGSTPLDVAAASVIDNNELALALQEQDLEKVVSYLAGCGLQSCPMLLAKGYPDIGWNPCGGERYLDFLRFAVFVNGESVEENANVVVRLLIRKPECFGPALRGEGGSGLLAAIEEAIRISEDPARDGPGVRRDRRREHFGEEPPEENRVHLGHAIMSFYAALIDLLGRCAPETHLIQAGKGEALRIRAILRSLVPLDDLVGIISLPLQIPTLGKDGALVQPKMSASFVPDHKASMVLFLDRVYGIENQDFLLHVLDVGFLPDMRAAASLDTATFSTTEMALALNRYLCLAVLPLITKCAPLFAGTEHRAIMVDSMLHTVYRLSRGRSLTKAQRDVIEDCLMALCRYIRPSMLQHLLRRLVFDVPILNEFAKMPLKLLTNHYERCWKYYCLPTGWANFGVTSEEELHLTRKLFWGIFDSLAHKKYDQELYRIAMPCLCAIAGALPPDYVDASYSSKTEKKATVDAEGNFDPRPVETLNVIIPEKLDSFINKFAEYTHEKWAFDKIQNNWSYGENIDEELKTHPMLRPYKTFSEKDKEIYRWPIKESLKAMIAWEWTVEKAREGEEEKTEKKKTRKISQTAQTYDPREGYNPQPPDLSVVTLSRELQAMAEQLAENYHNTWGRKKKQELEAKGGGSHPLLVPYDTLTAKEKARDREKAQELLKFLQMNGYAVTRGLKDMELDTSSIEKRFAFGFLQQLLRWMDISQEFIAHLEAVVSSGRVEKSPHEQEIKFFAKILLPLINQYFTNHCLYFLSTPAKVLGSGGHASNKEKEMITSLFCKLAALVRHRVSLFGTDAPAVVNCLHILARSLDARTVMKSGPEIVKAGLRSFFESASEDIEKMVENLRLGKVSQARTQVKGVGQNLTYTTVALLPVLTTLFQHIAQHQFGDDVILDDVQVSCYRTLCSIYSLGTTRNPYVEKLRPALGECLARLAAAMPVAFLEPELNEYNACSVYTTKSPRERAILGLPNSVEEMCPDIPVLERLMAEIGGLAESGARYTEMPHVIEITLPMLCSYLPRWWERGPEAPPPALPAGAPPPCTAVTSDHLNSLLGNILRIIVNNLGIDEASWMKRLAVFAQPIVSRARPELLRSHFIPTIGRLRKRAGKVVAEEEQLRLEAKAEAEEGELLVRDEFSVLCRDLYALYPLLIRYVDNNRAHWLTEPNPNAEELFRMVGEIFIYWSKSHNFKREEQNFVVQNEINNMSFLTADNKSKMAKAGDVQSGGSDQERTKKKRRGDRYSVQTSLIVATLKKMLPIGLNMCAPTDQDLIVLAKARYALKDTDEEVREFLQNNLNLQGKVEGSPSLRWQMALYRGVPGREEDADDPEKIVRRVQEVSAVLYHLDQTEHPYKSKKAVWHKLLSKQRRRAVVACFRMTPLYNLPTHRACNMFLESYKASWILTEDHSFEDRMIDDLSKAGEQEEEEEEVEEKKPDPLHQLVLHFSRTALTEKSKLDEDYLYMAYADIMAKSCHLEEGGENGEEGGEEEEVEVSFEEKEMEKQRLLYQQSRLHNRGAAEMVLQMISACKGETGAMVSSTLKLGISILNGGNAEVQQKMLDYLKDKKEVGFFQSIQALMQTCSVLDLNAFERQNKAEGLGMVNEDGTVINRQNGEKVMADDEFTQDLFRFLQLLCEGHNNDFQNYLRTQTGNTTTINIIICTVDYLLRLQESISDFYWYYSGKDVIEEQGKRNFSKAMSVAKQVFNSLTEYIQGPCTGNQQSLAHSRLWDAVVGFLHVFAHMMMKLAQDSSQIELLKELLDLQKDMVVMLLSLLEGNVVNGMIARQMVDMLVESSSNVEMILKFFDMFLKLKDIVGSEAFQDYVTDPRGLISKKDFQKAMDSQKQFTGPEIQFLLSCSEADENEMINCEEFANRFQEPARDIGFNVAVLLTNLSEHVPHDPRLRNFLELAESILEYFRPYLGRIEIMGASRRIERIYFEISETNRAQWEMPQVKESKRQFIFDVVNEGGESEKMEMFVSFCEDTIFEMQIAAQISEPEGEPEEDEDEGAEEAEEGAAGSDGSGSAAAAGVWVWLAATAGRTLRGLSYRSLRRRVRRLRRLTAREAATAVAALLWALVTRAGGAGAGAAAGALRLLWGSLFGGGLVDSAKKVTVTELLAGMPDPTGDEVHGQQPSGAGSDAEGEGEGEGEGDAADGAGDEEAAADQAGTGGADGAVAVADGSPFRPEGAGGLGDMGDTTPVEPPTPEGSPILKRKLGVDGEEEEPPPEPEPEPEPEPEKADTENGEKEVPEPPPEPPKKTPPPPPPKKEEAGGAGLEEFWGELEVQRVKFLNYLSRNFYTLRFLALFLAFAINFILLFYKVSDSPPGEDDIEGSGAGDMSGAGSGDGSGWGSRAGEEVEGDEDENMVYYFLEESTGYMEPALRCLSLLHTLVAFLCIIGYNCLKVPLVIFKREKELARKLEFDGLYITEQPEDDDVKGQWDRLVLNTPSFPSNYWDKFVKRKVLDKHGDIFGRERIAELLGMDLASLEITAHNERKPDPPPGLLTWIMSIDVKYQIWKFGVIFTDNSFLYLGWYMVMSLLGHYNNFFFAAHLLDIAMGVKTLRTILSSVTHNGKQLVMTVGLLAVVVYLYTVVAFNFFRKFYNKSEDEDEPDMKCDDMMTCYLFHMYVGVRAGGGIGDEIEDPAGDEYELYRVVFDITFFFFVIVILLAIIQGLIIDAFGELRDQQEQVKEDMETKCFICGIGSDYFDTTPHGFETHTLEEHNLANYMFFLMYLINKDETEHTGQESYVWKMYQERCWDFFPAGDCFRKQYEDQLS
T1 sequence (P26883 2-108 partner limits assumed): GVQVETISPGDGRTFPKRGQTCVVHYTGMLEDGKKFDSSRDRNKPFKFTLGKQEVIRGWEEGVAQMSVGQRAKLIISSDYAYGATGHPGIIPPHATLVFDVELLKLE

[3] = tested on: RyR1; settings: mdx mouse model; cited from earlier work
[4] = target: T1, RyR1; settings: aged mice; cited from earlier work
[5] = tested on: RyR; settings: cited from earlier work

COc1ccc2c(c1)CN(C)CCS2 [Compound 5107]
HF progression [1]: reduced
RyR2-mediated diastolic SR Ca2+ leak [1]: inhibited
Ca2+ dependent neutral protease calpain activity and plasma creatinine kinase levels [2]: reduced
depletion of calstabin1 from the RyR1 complex [2]: prevented
indices of muscle function [3]: improves
binding of calstabin1 to RyR1 [4]: stabilized
intracellular calcium leak [4]: reduced
reactive oxygen species (ROS) [4]: decreased
tetanic Ca2+ release, muscle-specific force, and exercise capacity [4]: enhanced
SR Ca2+ leak ([5]; after myocardial ischemia-reperfusion): inhibited
ventricular arrhythmias, infarct size, and left ventricular remodeling ([5]; at 15 days after reperfusion): reduced
